Values of other authors, collected in patent publication US20140328789A1, “pH-RESPONSIVE CELL SCAFFOLD AND METHOD OF USING SAME” (Research Foundation of the City University of New York, priority 2013, published 2014).

Settings: for pKa1 Monomer: first pKa; for pKa: cross-linking agent; for pKa2 Monomer: second pKa; for pKa3 Monomer: third pKa

C=C(C)C(=O)OCCN(CC)CC [2-diethylaminoethyl methacrylate]
pKa Monomer: pKa = 7.3

C=C(C)C(=O)OCCOP(=O)([O-])OCC[N+](C)(C)C [2-methacryloyloxyethyl phosphorylcholine]
pKa1 Monomer: pKa1 = 1.9

C/C=C/C(=O)OC(=O)/C=C/C [Crotonic anhydride]
pKa: pKa = 4.61

C=C(C)C(=O)OC(=O)C(=C)C [Methacrylic anhydride]
pKa: pKa = 4.65

C=C(C)C(=O)OCCN(C)C [N,N-Dimethylaminoethyl Methacrylate]
pKa Monomer: pKa = 7.3-7.5

C=CC(=O)NC(C)C [N-isopropylacrylamide (NIPAM), N-isopropylacrylamide]
pKa Monomer: pKa ≈ 6

C=C(C)C(=O)OC1CC(C)(C)N([O])C(C)(C)C1 [TEMPO methacrylate]
pKa Monomer: pKa = 5.5

C=C(C)C(=O)OCCN [aminoethyl methacrylate (AEMA), aminoethyl methacrylate]
pKa Monomer: pKa = 8.8

N[C@@H](CCC(=O)O)C(=O)O [glutamic acid]
pKa1 Monomer: 2.2
pKa2 Monomer: 4.25
pKa3 Monomer: pKa3 = 9.67

C=C(CC(=O)O)C(=O)O [itaconic acid]
pKa Monomer: pKa = 4.5

NCCCC[C@H](N)C(=O)O [lysine]
pKa1 Monomer: 2.2
pKa2 Monomer: 9.0
pKa3 Monomer: pKa3 = 10.5

albumin
pKa Monomer: pKa = 7.4
